In one experiment the target is cytbc1 (Plasmodium falciparum, UniProt Q02768). The experiment in a line: Enzymatic cytbc1 activity. In kind it is biochemical, P. falciparum K1 strain. To be noted: for % Inhibition Cytbc1 biochemical assay, 5 μM: compound at 5 μM, P. falciparum mitochondria, atovaquone 100% inhibition control.
Another experiment relates to P. yoelii (17XL). As to the kind of experiment: microbe, parasite or virus in culture. In kind it is cell-based, Plasmodium yoelii. To be noted: for IC50: read-out: OCA P. yoelii IC50.
For another experiment, the system named is P. falciparum (K1). In kind it is cell-based, Plasmodium falciparum.
The next experiment concerns HEK 293 cells. In kind it is cell-based, H. sapiens. The note with it: for IC50: read-out: OCA HEK 293 IC50, Table 4.

Consider eleven molecules from article PMC6039321 (International Journal for Parasitology: Drugs and Drug …, 2018).

Read-outs that look alike come from different tables or passages of the source. Where only a bound is given, the exact number is not on record here.

The term inhibition denotes the change of the read-out against control, counted positive when it falls. For orientation: IC50 means the midpoint of a concentration-inhibition curve.

cytbc1, sequence (Q02768 whole entry): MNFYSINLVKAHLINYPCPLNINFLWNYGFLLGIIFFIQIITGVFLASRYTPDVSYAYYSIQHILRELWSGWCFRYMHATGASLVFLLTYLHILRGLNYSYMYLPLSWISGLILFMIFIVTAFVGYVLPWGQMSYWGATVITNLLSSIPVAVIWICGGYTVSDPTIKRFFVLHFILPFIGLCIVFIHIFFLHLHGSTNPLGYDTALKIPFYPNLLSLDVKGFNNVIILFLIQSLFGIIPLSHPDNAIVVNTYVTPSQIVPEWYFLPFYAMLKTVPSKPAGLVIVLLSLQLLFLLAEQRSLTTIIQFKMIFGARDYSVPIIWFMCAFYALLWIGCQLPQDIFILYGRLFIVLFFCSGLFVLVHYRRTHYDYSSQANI

As for `O=C1C(O)=C([C@H]2CC[C@H](c3ccc(Cl)cc3)CC2)C(=O)c2ccccc21` [Atovaquone, reference compound], the inhibition at 0.5 µM at cytbc1 (read-out: % Inhibition Cytbc1 biochemical assay, 0.5 μM) amounted to 105 ± 8.26%. In addition, at cytbc1 (read-out: % Inhibition Cytbc1 biochemical assay, 5 μM), the inhibition at 5 µM stood at 101 ± 9.82%. The “inhibition of oxygen consumption signal in Plasmodium cells” value in the experiment with P. yoelii (17XL) (1.25 μM atovaquone, 2·10^7 P. yoelii cells (Fig. 2B)) is listed as “completely inhibited”. The IC50 with P. yoelii (17XL) (Plasmodium yoelii) amounted to 0.005 ± 0.001 µM.

For the molecule `N#CC(C#N)=NNc1ccc(OC(F)(F)F)cc1` [FCCP, carbonyl cyanide 4-(trifluoromethoxy)phenylhydrazone], the “Selectivity (P. falciparum vs H. sapiens)” value in the experiment with P. falciparum (K1) is given as 1.93.

In the case of `C=C(C)[C@H]1Cc2c(ccc3c2O[C@@H]2COc4cc(OC)c(OC)cc4[C@@H]2C3=O)O1` [Rotenone, reference compound], the “inhibition of oxygen consumption signal in HEK 293 cells” value with HEK 293 cells (rotenone at 2.5 μM, 6.5·10^5 HEK 293 cells (Fig. 2A)) is “completely inhibited”.

As for `C/C=C(C)/C=C/C=C/[C@H](OC)[C@@H](C)[C@@H](OC)[C@@H](C)CCc1oc2c(O)c(OC)cc(OC)c2c(=O)c1C` [Stigmatellin], the “Selectivity (P. falciparum vs H. sapiens)” value in the experiment with P. falciparum (K1) (ratio of OCA IC50 HEK 293 / P. falciparum K1) came out at 0.015.

For `O=C(Nc1ccccc1O)c1ccc(S(=O)(=O)c2ccc(Cl)cc2)cc1` [TCMDC-123689], the “% Inhibition Cytbc1 biochemical assay, 5 μM” value on cytbc1 is given as 99.84 ± 2.22%. For the same molecule, the half-inhibitory concentration (IC50) with HEK 293 cells was above 10 µM; in the experiment with P. yoelii (17XL) (Table 4), 8.19 ± 1.26 µM.

`c1ccc(CCNc2ncnc3c2[nH]c2ccccc23)cc1` [TCMDC-124578]: the “% Inhibition Cytbc1 biochemical assay, 5 μM” value at cytbc1 worked out at 100.30 ± 2.14%. Moreover, the concentration for half-maximal inhibition (IC50) in the experiment on HEK 293 cells was found to be 7.52 ± 0.5 µM; in the experiment on P. yoelii (17XL) (Table 4) it was 0.292 ± 0.249 µM.

Consider `COc1ccc(NS(=O)(=O)c2cc(NC(=O)Cn3ccccc3=O)ccc2N2CCCCC2)cc1` [TCMDC-124874], for which, at cytbc1, the “% Inhibition Cytbc1 biochemical assay, 5 μM” value was found to be 59.97 ± 8.70%. For the same molecule, the IC50 is above 10 µM with HEK 293 cells and 0.76 ± 0.109 µM in the experiment with P. yoelii (17XL) (Table 4).

As to `Cc1cccc(-c2nn(-c3ccccc3)cc2C(=O)Nc2nnc(C)o2)c1` [TCMDC-125039], the “% Inhibition Cytbc1 biochemical assay, 5 μM” value at cytbc1 is listed as 77.11 ± 12.20%. Moreover, the figures for the IC50 with HEK 293 cells and in the experiment with P. yoelii (17XL) (Table 4) were above 10 µM and 1.1 ± 0.131 µM, respectively.

Consider `Cc1cccc2nc(-c3ccc(-c4ccc(CN5CC(C)OC(C)C5)cc4)cc3)[nH]c12.O=C(O)C(F)(F)F` (stereo not shown) [TCMDC-133823], for which the “% Inhibition Cytbc1 biochemical assay, 5 μM” value at cytbc1 is 89.93 ± 9.67%. Further, the IC50 with HEK 293 cells is above 10 µM; in the experiment with P. yoelii (17XL) (Table 4), 2.2 ± 1.95 µM.

Consider `COCCN(C)c1ccc(C(=O)Nc2ccccc2)cc1NS(=O)(=O)Cc1ccccc1.O=C(O)C(F)(F)F` [TCMDC-134575], for which the “% Inhibition Cytbc1 biochemical assay, 5 μM” value on cytbc1 came to 91.48 ± 7.57%. In addition, the IC50 in the experiment on HEK 293 cells is above 10 µM; in the experiment on P. yoelii (17XL) (Table 4), 0.514 ± 0.225 µM.

As to `Clc1cccc(Nc2ccc3c(N4CCCCC4)ncnc3n2)c1` [TCMDC-134937], on cytbc1, the “% Inhibition Cytbc1 biochemical assay, 5 μM” value stood at 50.34 ± 6.78%. The figures for the IC50 in the experiment on HEK 293 cells and with P. yoelii (17XL) (Table 4) were above 10 µM and 1.32 ± 0.86 µM, respectively.
